Measurements from US5668165A, “Small molecule inhibition of RNA/ligand binding” (Scriptgen Pharmaceuticals, Inc., priority 1995, dated 1997).

How the values were obtained:
[1] = biological target: T1, binding of Oct-1 to the HSV ICPO octamer binding site (Homo sapiens, UniProt P14859); assay: Oct-1 DNA binding, gel mobility shift assay; details: 100 μM
T1 sequence (P14859 1-743): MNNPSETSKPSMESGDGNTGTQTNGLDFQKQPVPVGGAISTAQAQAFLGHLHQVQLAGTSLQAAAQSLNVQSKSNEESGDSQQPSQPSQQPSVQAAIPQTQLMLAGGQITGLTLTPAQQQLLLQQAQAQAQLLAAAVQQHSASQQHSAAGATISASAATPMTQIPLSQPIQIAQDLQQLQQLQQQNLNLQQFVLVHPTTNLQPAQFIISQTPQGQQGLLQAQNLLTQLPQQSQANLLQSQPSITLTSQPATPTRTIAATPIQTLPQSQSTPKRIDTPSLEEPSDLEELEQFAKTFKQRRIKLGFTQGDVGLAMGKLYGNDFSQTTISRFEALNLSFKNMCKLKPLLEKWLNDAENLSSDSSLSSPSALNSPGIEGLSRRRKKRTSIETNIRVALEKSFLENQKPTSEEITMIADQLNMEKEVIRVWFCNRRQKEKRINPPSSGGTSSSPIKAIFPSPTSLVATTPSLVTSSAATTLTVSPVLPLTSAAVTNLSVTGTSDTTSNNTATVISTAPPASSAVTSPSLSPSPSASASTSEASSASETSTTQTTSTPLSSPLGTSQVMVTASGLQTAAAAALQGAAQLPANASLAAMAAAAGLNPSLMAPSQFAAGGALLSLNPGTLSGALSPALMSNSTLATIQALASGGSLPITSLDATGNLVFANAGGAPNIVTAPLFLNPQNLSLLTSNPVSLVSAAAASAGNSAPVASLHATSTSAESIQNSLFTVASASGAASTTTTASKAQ
Method: In these studies, the DNA binding activities of two eukaryotic transcription factors, Oct-1 and ATF-2, were analyzed using a gel mobility shift assay. Purified Oct-1 was inculcated in the absence or presence of 100 μM neomycin B with a ^32 P-labelled 70-nt DNA probe containing an HSV ICPO octamer binding site (Stern and Her, Genes and Development, 5:2555-2566 (1991)). Additionally, the effect of 100 μM neomycin B on the binding of ATF-2 to a 35-nt DNA probe homologous to nucleotides -251 to -232 of the HTLV-1 LTR was analyzed.

67-nt RRE RNA = assay: Chemical footprinting (DMS/kethoxal) of the RRE; format: binding, HIV; details: 0.1, 1.0 and 10 μM; DMS or kethoxal
Method: The experiments described below were performed to determine whether or not neomycin B complexes directly with the RRE and thus blocks Rev binding. To this end, chemical footprinting experiments were performed. The 67-nt RRE RNA was incubated alone, with Rev, or with increasing concentrations of neomycin B, tobramycin, or kanamycin A, (0.1, 1.0 and 10 μM). The incubation mixtures were then treated with either dimethyl sulfate (DMS), which methylates adenosine at N1 and cytosine at N3, or with kethoxal, which modifies N1 and N2 of guanosine. Modification of specific bases was detected by primer extension. Under these conditions, DMS and kethoxal are single strand-specific, and thus the modification pattern of RNA alone provides an indication of secondary structure.

Rev binding to the RRE = assay: Rev competition with neomycin B for binding to the RRE; set-up: species or system HIV; details: 100 μM drug
Method: A prediction of this hypothesis is that inhibition could be overcome by high concentrations of Rev. […] However, as the amount of Rev was increased (i.e., to 10-20 ng), RNA binding was restored. The combined results of the experiments described in Examples 5 and 6 indicate that inhibition by neomycin B of Rev binding to the RRE occurs by a competitive mechanism.

Rev function = Rev function in vivo: cotransfection assay with CAT reporter plasmid pCM128; format: cell-based, HIV; details: cotransfection of pCM128 with a Rev expression plasmid
Method: The experiments described below were performed to determine whether or not the inhibitory 2-DOS antibiotics antagonize Rev function in vivo. Rev function was measured in a cotransfection assay using the chloramphenicol acetytransferase (CAT) reporter plasmid pCM128, which has a single intron containing both the RRE and the bacterial CAT coding sequence (Hope et al., Proc. Natl. Acad. Sci. USA, 87:7787-7791 (1990)). Normally, the intron is efficiently excised by splicing; therefore, cells transfected with pCM128 express only trace amounts of CAT enzyme activity. Cotransfection with a Rev expression plasmid permits unspliced transcripts to enter the cytoplasm, and thus CAT expression is increased.

Compound: NC[C@@H]1O[C@H](O[C@H]2[C@@H](O)[C@H](O[C@@H]3[C@@H](O)[C@H](N)C[C@H](N)[C@H]3O[C@H]3O[C@H](CN)[C@@H](O)[C@H](O)[C@H]3N)O[C@@H]2CO)[C@H](N)[C@@H](O)[C@@H]1O [neomycin B]
- binding of Oct-1 to the HSV ICPO octamer binding site [1]: unaffected
- protection of the RRE from chemical modification (67-nt RRE RNA): strongly protected residues 46-48
- Rev binding at the lowest protein amounts (Rev binding to the RRE; 1.3-2 ng Rev): completely inhibited
- RNA binding at increased amount of Rev (Rev binding to the RRE; 10-20 ng Rev): restored
- Rev function (CAT expression) (Rev function): dose-dependent inhibition
